This is an account of results in patent publication US20170216315A1 (priority 2016, published 2017).

For test [1], the system named is LXR-α, SREBP-1c, ACC, FAS, ME. Kind of test: Expressions of lipid synthesis-related genes in liver (real-time PCR). In kind it is in vivo, mice. Particulars: EK100 1, 5, 10 mg/kg/day vs EtOH group, p<0.05, FIG. 4. The protocol: C-4 was put into a 0.8 ml RNAlater containing an RNA stabilizer (Qiagen company, United States), and then the commercial kit (E.Z.N.A™ Tissue RNA kit, purchased from Omega Bio-Tek company, United States) was used to extract the mRNA therein. After that, the mRNA sample obtained therefrom was reverse transcribed to provide cDNA, and then specific primers (as shown in Table 2) were used to conduct real-time polymerase chain reaction (real-time PCR) of the cDNA to observe the expression of each gene in the mouse liver, wherein the operation steps of the real-time polymerase chain reaction were as follows: (i) 2 μl of cDNA (50 ng/μl), 5 μl of SYBR Green (Molecular Probes company, United States, Applied Biosystems/Fast SYBR® Green Master Mix), 2 μl of RNase-free water, 1 μl of forward primer, and 1 μl of reverse primer were well mixed and then centrifuged; (ii) the above sample was put into a real-time polymerase chain reaction system (Applied Biosystems/StepOne Real time PCR system) to detect the expression of each gene, wherein the expression of GAPDH was used as the […] control.
It has been known that LXR-α, SREBP-1c, ACC, FAS, ME, etc. are genes related to lipid synthesis, thus, the expressions of the above genes in mouse liver of each group were compared by the analysis method of [Preparation Examples] D-2.
(In qPCR the cycle at which signal appears reflects the starting amount.)

For a further test, the system named is male C57BL/6 mice. Kind of test: Amount of glutathione (GSH) in liver homogenate. The following applies: for Amount of GSH: liver homogenate, alcoholic liquid diet, 4 weeks.
For test [2], the system named is PPAR-α, RXR-α, CPT1, UCP2. Kind of test: Expressions of fatty acid β-oxidation-promoting genes in liver (real-time PCR). In kind it is in vivo, mice. Particulars: EK100 1, 5, 10 mg/kg/day vs EtOH group, p<0.05, FIG. 5.
Description: C-4 was put into a 0.8 ml RNAlater containing an RNA stabilizer (Qiagen company, United States), and then the commercial kit (E.Z.N.A™ Tissue RNA kit, purchased from Omega Bio-Tek company, United States) was used to extract the mRNA therein. After that, the mRNA sample obtained therefrom was reverse transcribed to provide cDNA, and then specific primers (as shown in Table 2) were used to conduct real-time polymerase chain reaction (real-time PCR) of the cDNA to observe the expression of each gene in the mouse liver, wherein the operation steps of the real-time polymerase chain reaction were as follows: (i) 2 μl of cDNA (50 ng/μl), 5 μl of SYBR Green (Molecular Probes company, United States, Applied Biosystems/Fast SYBR® Green Master Mix), 2 μl of RNase-free water, 1 μl of forward primer, and 1 μl of reverse primer were well mixed and then centrifuged; (ii) the above sample was put into a real-time polymerase chain reaction system (Applied Biosystems/StepOne Real time PCR system) to detect the expression of each gene, wherein the expression of GAPDH was used as the positive control.
Therefore, the expressions of the above genes in the mouse liver of each group were compared by the analysis method of [Preparation Examples]

Marks after values point to notes of the source that are not given here.

Consider `CC(C)[C@@H](C)/C=C/[C@@H](C)[C@H]1CC[C@H]2C3=CCC4C[C@@H](O)CC[C@]4(C)C3=CC[C@]12C` (stereo partly drawn) [EK100], for which the “Expressions of lipid synthesis-related genes in liver compared to EtOH” value in test [1] is given as “significantly decreased”. In addition, in the test on male C57BL/6 mice (EK100 1, 5, 10 mg/kg/day vs EtOH group, p<0.05), the “Amount of GSH in liver compared to EtOH” value is “significantly increased”. The “Amount of GSH” value was 49.08 ± 4.78^b nmol/mg protein with male C57BL/6 mice (EK100_1X: 1 mg/kg/day gavage), 71.14 ± 4.17^a nmol/mg protein in the test on male C57BL/6 mice (EK100_5X: 5 mg/kg/day gavage) and 77.21 ± 2.95^a nmol/mg protein in the test with male C57BL/6 mice (EK100_10X: 10 mg/kg/day gavage). For the same molecule, the “Expressions of fatty acid β-oxidation-promoting genes in liver compared to EtOH” value in test [2] is “significantly increased”.
